Measurements: article PMC9316855 (Molecules, 2022)
Like-named read-outs stand apart in the source and are kept apart here.

Experiments:
[1] = 24 h; cited from earlier work
[2] = 4 h; cited from earlier work

Q: What does the source list for `CC(C)C[C@H](NC(=O)[C@H](CC(=O)O)NC(=O)CNC(=O)[C@H](CCCNC(=N)N)NC(=O)[C@H](CC(C)C)NC(=O)[C@H](CC(N)=O)NC(=O)[C@@H]1CCCN1C(=O)[C@@H](NC(=O)[C@H](C)NC(=O)[C@@H](N)CC(N)=O)C(C)C)C(=O)N[C@@H](CCC(N)=O)C(=O)N[C@H](C(=O)N[C@@H](CC(C)C)C(=O)N[C@@H](C)C(=O)N[C@@H](CCC(N)=O)C(=O)N[C@@H](CCCCN)C(=O)N[C@H](C(=O)N[C@@H](C)C(=O)N[C@@H](CCCNC(=N)N)C(=O)N[C@H](C(=O)O)[C@@H](C)O)C(C)C)C(C)C` [Compound 13, H2N-^1NAVPNLRGDLQVLAQKVAR^20T-OH]?
A: peptide remaining intact in rat serum (24 h): almost completely degraded; peptide remaining intact in rat serum (48 h): undetected; peptide remaining in human plasma [1]: > 75%; peptide remaining intact in mouse serum [2]: 50%
